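Test compounds were applied to cells in 96-well plates for 48 hours at 5 doses. GI50 is the concentration that inhibits growth by half. Definition used: TGI = concentration required for complete inhibition of growth.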
Tests used:
Assay in all cases: inhibition of tumour cell growth, NCI panel, 48 h
[1] = system: A549 NSCLC
[2] = system: U251 CNS
[3] = system: UACC-62 melanoma
[4] = system: M14 melanoma
[5] = system: MALME-3M melanoma
[6] = system: RPMI-8226 leukemia
[7] = system: UACC-257 melanoma
[8] = system: OVCAR-4 ovarian
[9] = system: SF-268 CNS
[10] = system: A498 renal

Row | SMILES | TGI [1] [µM] | TGI [2] [µM] | TGI [3] [µM] | TGI [4] [µM] | TGI [5] [µM] | TGI [6] [µM] | TGI [7] [µM] | TGI [8] [µM] | TGI [9] [µM] | TGI [10] [µM] | GI50 [1] [µM] | GI50 [2] [µM] | GI50 [3] [µM] | GI50 [4] [µM] | GI50 [6] [µM] | GI50 [8] [µM] | GI50 [10] [µM] | GI50 [9] [µM] | GI50 [5] [µM] | GI50 [7] [µM]
1 | O=C(Cl)c1cc([N+](=O)[O-])cc([N+](=O)[O-])c1 | > 100 | > 100 | > 100 | > 100 | > 100 | > 100 | > 100 | > 100 | > 100 | – | – | – | – | – | – | – | – | – | – | –
2 | CN(C)CCCN1c2ccc3ccccc3c2Sc2cccc(Cl)c21 | 19 | 4.72 | 4.82 | 3.58 | 23 | 3.85 | 3.1 | 13.8 | 32.5 | 25.8 | – | – | – | – | – | – | – | – | – | –
3 | CC(C)OP(=O)(OC(C)C)c1ncn(-c2ccc([N+](=O)[O-])cc2)n1 | > 100 | > 100 | > 100 | > 100 | > 100 | > 100 | > 100 | > 100 | > 100 | > 100 | – | – | – | – | – | – | – | – | – | –
4 | COc1nc(NC2OCC(OC(C)=O)C(OC(C)=O)C2OC(C)=O)c(N=C(C)C(C)=O)c(=O)n1C (configuration not stated) | > 100 | > 100 | – | > 100 | > 100 | > 100 | > 100 | > 100 | > 100 | > 100 | – | – | – | – | – | – | – | – | – | –
5 | Nc1cc(N)c2nc(-c3ccccc3)c(Sc3ccc(F)cc3)nc2c1 | 30.9 | 31.7 | 31.8 | 30.8 | – | 81.5 | – | 55.9 | 38.9 | 46 | 13.5 | 16.4 | 16.7 | 15.9 | 28.3 | 22.9 | 27.5 | 17.6 | – | –
6 | COc1cccc(C(=O)C(O)c2cccc(OC)c2OC)c1OC (configuration not stated) | > 100 | > 100 | > 100 | > 100 | > 100 | > 100 | > 100 | > 100 | > 100 | > 100 | – | – | – | – | – | – | – | – | – | –
7 | O=C(CCc1nnc2s/c(=C\c3ccc(Cl)cc3Cl)c(=O)n12)Nc1cc(Cl)c(Cl)cc1Cl | > 100 | > 100 | > 100 | > 100 | > 100 | > 100 | > 100 | > 100 | > 100 | > 100 | > 100 | – | > 100 | > 100 | > 100 | > 100 | > 100 | > 100 | > 100 | > 100
8 | CN1C(=N\S(=O)(=O)c2ccc(Cl)cc2)/C(=N/N=P(c2ccccc2)(c2ccccc2)c2ccccc2)c2ccccc21 | > 100 | > 100 | > 100 | > 100 | > 100 | – | > 100 | > 100 | > 100 | > 100 | – | – | – | – | – | – | – | – | – | –
